In patent publication US8497240B2 (priority 2006, dated 2013):
Like-named read-outs stand apart in the source and are kept apart here.

Format: in vivo, NIH/Swiss mice
Protocol: In FIG. 3A, bars represent mean±sd, n=6-10. […] Gavage (1.5 g/kg) was given at t=0, Sample was taken at t=30 min. […] In FIG. 3B, points represent mean±sem, n=8-15.
Peptide was injected IP at t=−5 minutes into 4-hour fasted NIH/Swiss female mice. […] In FIG. 17 points represent mean+/−sem. […] Samples were taken at t=60, t=120 and t=180.

SMILES	OGTT/GL (%) (350 nmol/kg)	OGTT/GL (%) (30 nmol/kg)
CC[C@H](C)[C@H](NC(=O)[C@H](CO)NC(=O)[C@H](Cc1ccc(O)cc1)NC(=O)[C@H](CC(=O)O)NC(=O)[C@H](CO)NC(=O)[C@@H](NC(=O)[C@H](Cc1ccccc1)NC(=O)[C@@H](NC(=O)CNC(=O)[C@H](CCC(=O)O)NC(=O)[C@@H](C)NC(=O)[C@@H](N)Cc1ccc(O)cc1)[C@@H](C)O)[C@@H](C)CC)C(=O)N[C@@H](C)C(=O)N[C@@H](CCSC)C(=O)N[C@@H](CC(=O)O)C(=O)N[C@@H](CCCCN)C(=O)N[C@H](C(=O)N[C@@H](Cc1c[nH]cn1)C(=O)N[C@@H](CCC(N)=O)C(=O)N[C@@H](CCC(N)=O)C(=O)N[C@@H](CC(=O)O)C(=O)N[C@@H](Cc1ccccc1)C(=O)N[C@H](C(=O)N[C@@H](CC(N)=O)C(=O)N[C@@H](Cc1c[nH]c2ccccc12)C(=O)N[C@@H](CC(C)C)C(=O)N[C@@H](CC(C)C)C(=O)N[C@@H](C)C(=O)N[C@@H](CCC(N)=O)C(=O)N[C@@H](CCCCN)C(=O)N1CCC[C@H]1C(=O)N[C@@H](CO)C(=O)N[C@@H](CCCCN)C(=O)N[C@@H](CCC(=O)O)C(=O)N[C@H](C(=O)N[C@H](C(=O)N[C@@H](CO)C(N)=O)[C@@H](C)CC)[C@@H](C)CC)C(C)C)[C@@H](C)CC [Compound 0601GIP4234]	−17%	
CC[C@H](C)[C@H](NC(=O)[C@H](CO)NC(=O)[C@H](Cc1ccc(O)cc1)NC(=O)[C@H](CC(=O)O)NC(=O)[C@H](CO)NC(=O)[C@@H](NC(=O)[C@H](Cc1ccccc1)NC(=O)[C@@H](NC(=O)CNC(=O)[C@H](CCC(=O)O)NC(=O)[C@@H](C)NC(=O)[C@@H](N)Cc1ccc(O)cc1)[C@@H](C)O)[C@@H](C)CC)C(=O)N[C@@H](C)C(=O)N[C@@H](CCSC)C(=O)N[C@@H](CC(=O)O)C(=O)N[C@@H](CCCCN)C(=O)N[C@H](C(=O)N[C@@H](Cc1c[nH]cn1)C(=O)N[C@@H](CCC(N)=O)C(=O)N[C@@H](CCC(N)=O)C(=O)N[C@@H](CC(=O)O)C(=O)N[C@@H](Cc1ccccc1)C(=O)N[C@H](C(=O)N[C@@H](CC(N)=O)C(=O)N[C@@H](Cc1c[nH]c2ccccc12)C(=O)N[C@@H](CC(C)C)C(=O)N[C@@H](CC(C)C)C(=O)N[C@@H](C)C(=O)N[C@@H](CCC(N)=O)C(=O)N[C@@H](CCCCN)C(=O)N[C@H](C(=O)N[C@@H](CO)C(=O)N1CCC[C@H]1C(=O)N[C@@H](CCCNC(=N)N)C(=O)N1CCC[C@H]1C(=O)N1CCC[C@H]1C(=O)N[C@@H](CO)C(N)=O)[C@@H](C)O)C(C)C)[C@@H](C)CC [Compound 0601GIP4236]	−16%	
CC[C@H](C)[C@H](NC(=O)[C@H](CO)NC(=O)[C@H](Cc1ccc(O)cc1)NC(=O)[C@H](CC(=O)O)NC(=O)[C@H](CO)NC(=O)[C@@H](NC(=O)[C@H](Cc1ccccc1)NC(=O)[C@@H](NC(=O)CNC(=O)[C@H](CC(=O)O)NC(=O)[C@H](C)NC(=O)[C@@H](N)Cc1ccc(O)cc1)[C@@H](C)O)[C@@H](C)CC)C(=O)N[C@@H](C)C(=O)N[C@@H](CCSC)C(=O)N[C@@H](CC(=O)O)C(=O)N[C@@H](CCCCN)C(=O)N[C@H](C(=O)N[C@@H](Cc1c[nH]cn1)C(=O)N[C@@H](CCC(N)=O)C(=O)N[C@@H](CCC(N)=O)C(=O)N[C@@H](CC(=O)O)C(=O)N[C@@H](Cc1ccccc1)C(=O)N[C@H](C(=O)N[C@@H](CC(N)=O)C(=O)N[C@@H](Cc1c[nH]c2ccccc12)C(=O)N[C@@H](CC(C)C)C(=O)N[C@@H](CC(C)C)C(=O)N[C@@H](C)C(=O)N[C@@H](CCC(N)=O)C(=O)N[C@@H](CCCCN)C(=O)N1CCC[C@H]1C(=O)N[C@@H](CCCCN)C(=O)N[C@@H](CCCCN)C(=O)N[C@H](C(=O)N[C@@H](CCCNC(=N)N)C(=O)N[C@@H](Cc1ccc(O)cc1)C(=O)N[C@@H](CO)C(N)=O)[C@@H](C)CC)C(C)C)[C@@H](C)CC [Compound 0601GIP4390]		1, 30%
